Assay results taken from a melting point compilation (Tetko et al.; mined from patent text by program, amines drawn as free bases though some values may be those of a salt).

SMILES | melting point [°C]
CC(C)(C)OC(=O)CCOCCCc1ccnc(-c2nc(=O)c3ccccc3s2)c1 | 81.1 to 82.2
Cn1c(COc2ccc(C=C3SC(=O)NC3=O)cc2)nc2ccc(Sc3cc(C(C)(C)C)c(O)c(C(C)(C)C)c3)cc21 | 247 to 249
CCCCCCCCCC(O)C#CC(=O)O (configuration not stated) | 65 to 66
COc1ccc(CC(C)NCC(O)c2cccc(F)c2)cc1 (configuration not stated) | 85 to 89
CCCCCCCCc1cnc(-c2ccc(OCC(C)OCCC)cc2)nc1 (configuration not stated) | 37.4
CC(c1ccnnc1)C(O)(Cn1cncn1)c1ccc(Cl)cc1Cl (configuration not stated) | 174 to 177
Cc1sc(-c2cccnc2)nc1O | 201 to 202
O=C1N(Cc2cnc(O)nc2)c2ccccc2C12COc1cc3c(cc12)OCCO3 (configuration not stated) | > 250
O=C(O)C1=Cc2cc(Cl)c(I)cc2OC1C(F)(F)F (configuration not stated) | 225 to 226
O=C1C(CCO)Oc2ccc(C(F)(F)F)cc2N1Cc1cccc(Cl)c1 (configuration not stated) | 92 to 94
CCOC1=NC(C)(C)NC(N)=N1 | 175 to 178
Cc1oc(-c2ccccc2)nc1CCOc1ccc(COc2nn(C)cc2CC(=O)O)cc1 | 148 to 149
CSc1ccc(-c2cnn(-c3ccc(F)cc3)c(=O)c2OC(C)C)cc1 | 135 to 137
Cc1c2c(c(-c3ccc(F)cc3)c3c4c(ccc13)OCO4)C(=O)NC2=O | 302 to 304
Nc1ccc2sc(-c3cccnc3)nc2c1 | 189 to 196
c1ccc2c(c1)nnn2CSCn1nnc2ccccc21 | 179 to 181
COc1c(C#Cc2ccc(NS(C)(=O)=O)cc2C)cc(N2CCC(=O)NC2=O)cc1C(C)(C)C | > 280
CCn1c(=O)c2[nH]c(/C=C/c3cccc(Br)c3)nc2n(CC)c1=O | > 270
O=C1c2[nH]c3cc(Cl)ccc3c2Oc2ccccc2N1Cc1ccccc1 | 259 to 261
CCc1cc(C(=O)c2ccccc2Cl)c(-n2c(Cl)nnc2CNC(=O)c2cc3ccccc3[nH]2)s1 | 254 to 256
C=CCOc1ccccc1-c1nc2c(CCC)nn(C)c2c(=O)[nH]1 | 116 to 119

SMILES | melting point [°C]
CC(C#Cc1ccc(F)cc1)N(O)C(N)=O (configuration not stated) | 156 to 158
Oc1ccc([C@H]2OCCN3[C@@H](CCc4ccccc4)CC[C@H]23)cc1 (racemic) | 170 to 172
CCOC(=O)CN(C(=O)C(F)(F)F)c1ccc(Cl)cc1C#N | 71 to 73
C=CCN(CC=C)CCCCC(=O)c1ccc2c(c1)Cc1cc(C(=O)CCCCN(CC=C)CC=C)ccc1O2 | 54 to 55
CCCn1nc(C(C)(F)F)nc1Cc1ccc(-c2ccccc2-c2nnn[nH]2)nc1 | 200
CC(NC(=S)Nc1ccc(NCCN)nc1)C(C)(C)C (configuration not stated) | 138 to 140
CCOC(=O)C1=C(C)NC(C)=C(C(=O)OC)C1c1cccc2c(=O)c(C)c(-c3ccccc3)oc12 (configuration not stated) | 226 to 228
CCCCc1ncc(/C=C(\Cc2cccs2)C(=O)O)n1Cc1ccc(C(=O)O)cc1Cl | 234 to 236
CCCCCCCCCCCCCCCCCC(=O)NN(C(=O)CCCCCCCCCCCCCCCCC)C(=O)CCC(=O)NN | 248 to 252
CN1C=NC(Cc2ccccc2)(Cc2ccccc2)C1=O | 125 to 126
c1ccc(-c2nnc(-c3ccccc3)c3c2CCCCCC3)cc1 | 163 to 165
C=CCn1c(=O)c2cc(C(=O)OCC)cn2c2ccccc21 | 177 to 178
CCOC(=O)c1ccc(OCCCCCCCCC#CCCCCOc2ccc(Cl)cc2)cc1 | 52 to 53
CC(C)n1nccc1-c1nn(-c2cccc(C(F)(F)F)c2)ccc1=O | 183 to 184
O=[N+]([O-])c1c(Br)nn(CCO)c1NCCO | 132 to 134
CSc1ccc(C(=O)COc2ccc(F)cc2F)cc1 | 70 to 71
CON=C(Cn1c(=O)ccc2ccccc21)c1ccc(C)cc1 | 129 to 132
CCCCc1oc2ccccc2c1-c1ncc(-c2ccc3cc(OCC(=O)OC)ccc3c2)o1 | 149 to 151
CON(c1ccc([N+](=O)[O-])cc1Cl)S(=O)(=O)c1ccc(Cl)c([N+](=O)[O-])c1 | 138 to 139
Nc1nc(N)nc(-c2ccc(Sc3ccccc3)cc2)n1 | 213 to 215

Other lines, results leading:

melting point [°C] | SMILES
83 to 84 | CCOC(=O)c1c(CC)nn2c(-c3ccccc3)ccnc12
113 to 115 | COC(=O)c1c(Cl)cc(Cl)c2ccc(Cl)cc12
101 to 102 | COC(=O)COc1cccc2c(CNC(=O)COc3ccccc3)coc12
118 to 135 | CNC(=O)C(Cc1ccc(OC)cc1)NC(=O)C(CC(C)C)C(CC(=O)OC)SC(C)=O (configuration not stated)
99 to 101 | COC(=O)Cc1sc(F)c(N=c2sc(=O)n3n2CCCC3)c1Cl
94 | COC(C)=CC(=O)NC1CCCC1
102 | S=C(NC1CCCc2sccc21)C1CCNCC1 (configuration not stated)
212 to 213 | COCc1ccoc1C(=O)c1[nH]c2cc(Cl)ccc2c1CC(=O)O
159 to 160 | CC(C)(CC/C=C\[C@@H]1C[C@@H](NS(=O)(=O)c2ccc(Cl)cc2)CN1S(=O)(=O)c1ccc(Cl)cc1)C(=O)O
108 to 110 | Cc1ccc(C(=O)C=CN(C)C)cc1C
75 to 76 | CCCCCCCC(=O)c1ccc(CCC(CC)(COC(C)=O)NC(C)=O)cc1 (configuration not stated)
107 to 108 | COc1ccc2c(c1)N(CCNC(C)=O)CCO2
128 to 131 | CCCC(C(C)=CC(CNC(=O)c1cccnc1)=NO)[N+](=O)[O-] (configuration not stated)
168 | COc1ccc(CCNC(=O)CNc2cc(Cl)ccc2C(N)=O)cc1OC
82 | COC(=O)C1c2ccccc2Oc2ccccc21
145 to 147 | CN(C)CCNC(=O)c1ccc(-c2cnc3c(c2)N(C(=O)c2ccccc2)CCN3)cc1

melting point [°C] | SMILES
249 to 251 | N#Cc1ncn2c1[C@@H]1CCCN1C(=O)c1sccc1-2
167 to 172 | O=C(C1CCCCC1)N1CCN2C(=O)c3ccccc3C2C1=O (configuration not stated)
206 to 209 | Nc1nc(Cl)nc2c1ncn2C1CCCCC1
120 to 122 | CCOC(=O)c1ncc(-c2ccc(Br)cc2)o1
181 to 183 | COC(=O)c1ccc(S(=O)(=O)N2CCC(Sc3cc(C(C)(C)C)c(O)c(C(C)(C)C)c3)CC2)n1C
> 300 | O=C(O)c1cccc(-c2cc3c(Nc4cccc(Cl)c4)ncnc3[nH]2)c1
188 to 189 | COc1cc(C(=O)O)ccc1Cn1ccc2ccc(CC(=O)NCC3CCCC3)cc21
38 to 39 | CCOC(=O)CNc1ncccc1[N+](=O)[O-]
198 to 199 | COc1ccc(C2=NN(C3CCN(S(=O)(=O)c4ccc(C)cc4)CC3)C(=O)[C@H]3CC=CC[C@@H]23)cc1Cl (relative stereo)
196 | CCCCNC(=O)Nc1nc2cc(CN3CCN(C(c4ccccc4)c4ccccc4)CC3)ccc2n1C
115 to 118 | CC12CCC3C4CCC(=O)C=C4CCC3C1CCC2CO (configuration not stated)
178 to 180 | NS(=O)(=O)c1ccc2c(c1)CNC(C1CCCCC1)N2 (configuration not stated)
113 to 115 | COc1cc(/C=C/C(=O)C#CCO)cc(OC)c1OC
205 to 207 | COc1cc2c(cc1-c1ncco1)-c1c(-c3cncs3)c3c(n1CC2)C(=O)N(C(C)(C)C)CCCC3
195 to 198 | CC12CCC(O)CC1=CCC1C2CCC2(C)C(n3ncnn3)=CCC12 (configuration not stated)
